Test system: washed human platelets, TRAP-induced aggregation
Assay: In vitro test for inhibition of human platelet aggregation induced by TRAP
Format: cell-based
Conditions: 5 μM TRAP; washed human platelets; mean of n experiments; entries marked b measured with a Chronolog aggregometer, others with micro plate reader; read-out: Inhibition of TRAP (5 μM)-induced human platelet aggregation (IC50), mean
Source text: I.b. In vitro Test for Inhibition of Human Platelet Aggregation Induced by TRAP
Introduction: Addition of trombin receptor agonist peptide (TRAP) to washed human platelets (WPL) in vitro induces platelet aggregation. This aggregation can be determined by measuring the optical density of the WPL. The in vitro test described here is used to analyze the activity of a test compound to inhibit TRAP-induced aggregation of human platelets. A micro plate reader is used to measure the activity of several compounds simultaneously.
An alternative vehicle is 0.9% NaCl in MQ H2O. The compound solution (either in MQ H2O or 0.9% NaCl in MQ H2O) is further diluted in 0.9% NaCl in MQ H2O.
Free-flowing blood (at least 100 mL) is taken from a healthy volunteer and collected in 0.1 volume 3.8% sodium citrate. 2H2O in MQ H2O (w/v). The final concentration is 0.38% sodium citrate. The citrated blood is centrifuged at 1,600 N/kg (160 g) in Hettich Rotanta/AP centrifuge (750 rpm) at RT. After 15 min, centrifugation is discontinued with the brake turned off and the supernatant (=PRP) is collected. • 2. Washed platelets (WPL):
After adding freshly made 1 μL PGI2 solution per ml PRP, the suspension is centrifuged at 13,500 N/kg (1,350 g) for 10 min in a Hettich Rotanta/AP centrifuge (i.e., 2,800 rpm) at RT. After gentle resuspension of the pellet in the same volume of fresh Watson buffer containing 5 ng/mL PGI2, the suspension is centrifuged at 1,350 g (2,800 rpm) for 10 min at RT again. The final platelet pellet is resuspended in Watson buffer to give approx. 400,000±50,000 platelets/[…]. • 3. Watson buffer:
134 mM NaCl, 2.9 mM KCl, 12 mM NaHCO3, 0.34 mM Na2HPO4.2H2O, 1 mM MgCl2.6H2O, 5 mM Glucose and 5 mM HEPES in MQ H2O. The pH is adjusted to 7.4 with 1 M NaOH. • 4. Prostaglandin I2 (Sigma, P6188 powder):
The PGI2 stock solution of 1 mg/mL in 1 M KOH is stored in aliquots of 100 μL at −20° C. Immediately before use, a solution of 5 μg/mL in ice-cold 0.9% NaCl in MQ H2O is prepared. • 5. Human Fibrinogen (Kordia/ERL, art nr: FIB 2 powder):
0.5 g fibrinogen powder is dissolved in 50 mL MQ H2O under vacuum. This stock solution is stored in aliquots of 1 mL at −20° C. Before use, a solution of 0.5 mg/mL in saline is prepared.
Before use, a solution of 50 μM TRAP in 0.9% NaCl in MQ H2O is prepared. For each test, a fresh solution is made.
• 1. Sysmex cell counter model KX-21 • 2. Labsystems iEMS reader MF with a 405 nm filter, an orbital shaker set at 1,000 rpm and a constant temperature of 37° C. Absorptions are measured with the Labsystems iEMS program. • 3. Blood collection system 600 mL with needle, art nr P4203 (NPBI) • 4. 96 wells micro plates (Greiner Labortechnik) flat-bottom
Procedure: The WPL concentration is counted in a Sysmex blood cell counter and the suspension is diluted with Watson buffer to obtain a concentration of 400,000±50,000 plt/μL. Before use, WPL is allowed to stabilize at room temperature for at least 20 min but not longer than 3-4 hours.
TRAP-induced aggregation: 150 μL WPL is pipetted into a well of a micro plate. 15 μL test compound or vehicle and 15 μL fibrinogen solution is added and the micro plate is placed in the micro plate reader at 37° C. Then, the optical density (OD) is measured at 405 nm and after shaking for 2 min in the reader, the OD405 is measured again to verify the stability of the platelets (absence of spontaneous platelet aggregation). 20 μL of 50 μM TRAP is added and the OD405 is kinetically measured every min for 14 min at 405 nm. Between two measurements, the plate is shaking for 40 seconds at 1,000 rpm (FIG. 1). For determination of the IC50 of a test compound, each test compound is investigated in at least 2 experiments using WPL from different volunteers.
Evaluation of response: The mean OD of each concentration (including vehicle) is calculated at t=0 min and t=10 min. The percentage inhibition at each concentration is calculated using the formula: […]

**Q.** For “Methyl O-2,3-di-O-methyl-4-O-<<12-N-<N-(3-keto-benzenesulfonyl)-4-O-{4-(4-piperidinyl)-butyl}-L-tyrosine>-12-aza-3,6,9-trioxa-dodecyl>>-6-O-sulfo-alpha-D-glucopyranosyl-(1->4)-O-2,3-di-O-methyl-beta-D-glucopyranuronosyl-(1->4)-O-2,3,6-tri-O-sulfo-alpha-D-glucopyranosyl-(1->4)-O-2,3-di-O-methyl-alpha-L-idopyranuronosyl-(1>4)-3-O-methyl-2,6-di-O-sulfo-alpha-D-glucopyranoside octakis sodium salt [XIV]”, which IC50 is on record?
**A.** 80 nM
